Results on eleven compounds are retold here after patent US20260217708A1, “FUSED BENZAZEPINE DERIVATIVES FOR USE IN THE TREATMENT OF CANCER AND EPILEPSY” (UCB BIOPHARMA SRL, priority 2023, published 2026).

The target in assay [1] is T1, system Xc^− (Homo sapiens, UniProt Q9UPY5).
T1 sequence (Q9UPY5 1-501): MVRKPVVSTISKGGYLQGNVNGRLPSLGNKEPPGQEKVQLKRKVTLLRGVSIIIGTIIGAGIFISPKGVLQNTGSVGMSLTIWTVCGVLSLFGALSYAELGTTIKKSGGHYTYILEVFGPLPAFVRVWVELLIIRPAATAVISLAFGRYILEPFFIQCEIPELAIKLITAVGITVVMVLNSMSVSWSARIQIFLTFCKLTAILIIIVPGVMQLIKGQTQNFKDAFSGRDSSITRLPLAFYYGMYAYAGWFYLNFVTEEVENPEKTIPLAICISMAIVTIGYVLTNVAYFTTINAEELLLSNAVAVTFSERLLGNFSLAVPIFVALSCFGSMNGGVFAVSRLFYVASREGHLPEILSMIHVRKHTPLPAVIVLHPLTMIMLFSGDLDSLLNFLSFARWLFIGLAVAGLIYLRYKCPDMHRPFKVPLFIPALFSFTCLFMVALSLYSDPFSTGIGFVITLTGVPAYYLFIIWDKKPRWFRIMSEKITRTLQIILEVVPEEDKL
T1 sequence (P08195 1-529 partner): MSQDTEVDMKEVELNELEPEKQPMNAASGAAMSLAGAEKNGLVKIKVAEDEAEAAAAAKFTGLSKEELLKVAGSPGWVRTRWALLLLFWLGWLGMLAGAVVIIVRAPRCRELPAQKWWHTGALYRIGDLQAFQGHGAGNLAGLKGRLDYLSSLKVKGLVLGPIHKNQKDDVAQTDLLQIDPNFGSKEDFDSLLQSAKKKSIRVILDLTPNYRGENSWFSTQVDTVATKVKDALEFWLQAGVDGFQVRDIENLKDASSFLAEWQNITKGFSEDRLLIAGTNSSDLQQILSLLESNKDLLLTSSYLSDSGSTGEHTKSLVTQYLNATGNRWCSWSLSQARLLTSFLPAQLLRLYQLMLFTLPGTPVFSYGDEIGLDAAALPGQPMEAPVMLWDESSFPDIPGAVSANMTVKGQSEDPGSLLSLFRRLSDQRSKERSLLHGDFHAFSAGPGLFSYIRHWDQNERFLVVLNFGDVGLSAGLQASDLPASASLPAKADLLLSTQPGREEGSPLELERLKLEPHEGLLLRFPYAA
The experiment in a line: Cystine-induced glutamate release assay. Type of assay: cell-based. Further details: endogenous in cells; host or cells: H4 cells. To be noted: H4 cells, sodium-free HEPES buffer, 50 μM L-Cystine, 2 hours, Amplex Red glutamate readout; read-out: pIC50 Cystine-induced glutamate release assay (converted). An outline of the steps: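 IC50 (reported as pIC50) normalized to DMSO 1% and Erastin 50 μM controls, from Amplex Red fluorescence of glutamate exported into supernatant. H4 cells were washed into sodium-free buffer to exclude EAAT transport, then given compound with 50 μM L-cystine for 2 h in the incubator.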

In assay [2] the target is T1, system Xc^−. The assay is described as follows: [^14C]L-Cystine uptake assay. Type of assay: cell-based. Further details: endogenous in cells; host or cells: H4 cells. To be noted: H4 cells, sodium-free HEPES buffer, 0.5 μM L-[14C]Cystine and 4.5 μM L-Cystine, 1 hour at 37° C.; read-out: pIC50 [^14C] L-Cystine uptake assay (converted). An outline of the steps:
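Compound effect is given as pIC50, taken between controls of 1% DMSO and 50 μM Erastin. Human H4 cells were pretreated 15 min with compound in sodium-free buffer, then took up 0.5 μM [14C]cystine with 4.5 μM cold cystine for 1 hour at 37° C, read by scintillation proximity counting.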

For the compound `Cc1cc2c(cc1C)N(CC(=O)Nc1ccc(C(F)(F)F)cc1)C(=O)Cc1ccncc1-2` [#24, 2-(9,10-dimethyl-6-oxo-5H-pyrido[4,3-d][1]benzazepin-7-yl)-N-[4-(trifluoromethyl)phenyl]acetamide], the values for the IC50 at system Xc^− [1] and at system Xc^− [2] were 100 to 501 nM and 15.8 to 39.8 nM, respectively.
The matching figures for `N#Cc1c(F)ccc2c1-c1cccnc1CC(=O)N2CC(=O)Nc1ccc(C(F)(F)F)cc1` [#68, 2-(11-cyano-10-fluoro-6-oxo-5H-pyrido[2,3-d][1]benzazepin-7-yl)-N-[4-(trifluoromethyl)-phenyl]acetamide]: 39.8 to 100 nM and 39.8 to 100 nM.
`Cc1cc2c(c(=O)n1C)-c1ccccc1C(C)C(=O)N2CC(=O)Nc1ccc(C(F)F)cc1` (single isomer, unassigned) [#175, N-[4-(difluoromethyl)phenyl]-2-(2,3,7-trimethyl-1,6-dioxo-7H-pyrido[4,3-d][3]benzazepin-5-yl)acetamide]: the IC50 at system Xc^− [1] and on system Xc^− [2] was below 15.8 nM in each case.
Regarding `Cc1cc2c(c(F)n1)-c1cccnc1[C@@H](C)C(=O)N2CC(=O)Nc1ccc(Cl)c(F)c1F` [#249, N-(4-chloro-2,3-difluoro-phenyl)-2-[(10R)-3-fluoro-5,10-dimethyl-9-oxo-4,8,12-triazatricyclo[9.4.0.0^2,7]pentadeca-1(15),2,4,6,11,13-hexaen-8-yl]acetamide], the IC50 at system Xc^− [1] is 39.8 to 100 nM; at system Xc^− [2], 100 to 501 nM.
For `CC1C(=O)N(CC(=O)Nc2ccc(C(F)F)cc2)c2cc(C#N)ccc2-c2cccnc21` (single isomer, unassigned) [#312, 2-[9-cyano-5-methyl-6-oxo-5H-pyrido[2,3-d][1]benzazepin-7-yl]-N-[4-(difluoromethyl)phenyl]acetamide] the same measures were below 15.8 nM and 39.8 to 100 nM.
The matching figures for `COCC1C(=O)N(CC(=O)Nc2ccc(C(F)(F)F)cc2)c2cc(C)nc(Cl)c2-c2ccccc21` (stereo not shown) [#122, 2-[1-chloro-7-(methoxymethyl)-3-methyl-6-oxo-7H-pyrido[3,4-a][3]benzazepin-5-yl]-N-[4-(trifluoromethyl)phenyl]acetamide]: 100 to 501 nM and 39.8 to 100 nM.
The matching figures for `Cc1cc2c(c(F)n1)-c1cccnc1C(CO)C(=O)N2CC(=O)Nc1ccc(C(F)(F)F)cc1` (stereo not shown) [#152, 2-[3-fluoro-10-(hydroxymethyl)-5-methyl-9-oxo-4,8,12-triazatricyclo[9.4.0.0^2,7]pentadeca-1(11),2(7),3,5,12,14-hexaen-8-yl]-N-[4-(trifluoromethyl)phenyl]acetamide]: 39.8 to 100 nM and 15.8 to 39.8 nM.
Take `Cc1cc2c(c(Cl)n1)-c1ccccc1CC(=O)N2CC(=O)Nc1ccc(Cl)c(F)c1` [#50, N-(4-chloro-3-fluoro-phenyl)-2-(1-chloro-3-methyl-6-oxo-7H-pyrido[4,3-d][3]benz-azepin-5-yl)acetamide]: the IC50 is 39.8 to 100 nM at system Xc^− [1] and below 15.8 nM at system Xc^− [2].
For `CC1C(=O)N(CC(=O)Nc2ccc(C(F)F)cc2)c2cc(Cl)cc(F)c2-c2cccnc21` (single isomer, unassigned) [#332, 2-[9-chloro-11-fluoro-5-methyl-6-oxo-5H-pyrido[2,3-d][1]benzazepin-7-yl]-N-[4-(difluoromethyl)phenyl]acetamide] the same measures were 15.8 to 39.8 nM and below 15.8 nM.
The matching figures for `Cc1cc2c(c(F)n1)-c1cccnc1[C@@H](C)C(=O)N2CC(=O)Nc1ccc(OC(F)F)cc1` [#139, N-[4-(difluoromethoxy)phenyl]-2-[(10R)-3-fluoro-5,10-dimethyl-9-oxo-4,8,12-triazatricyclo[9.4.0.0^2,7]pentadeca-1(11),2(7),3,5,12,14-hexaen-8-yl]acetamide]: 15.8 to 39.8 nM and 15.8 to 39.8 nM.
The matching figures for `CC1C(=O)N(CC(=O)Nc2ccc(Cl)c(F)c2)c2ccn(C(F)F)c(=O)c2-c2cccnc21` (stereo not shown) [#366, N-(4-chloro-3-fluoro-phenyl)-2-[4-(difluoromethyl)-10-methyl-3,9-dioxo-4,8,12-triazatricyclo[9.4.0.0^2,7]pentadeca-1(15),2(7),5,11,13-pentaen-8-yl]acetamide]: 39.8 to 100 nM and 39.8 to 100 nM.
